Common to all, as to test: biochemical
One test concerns the target DRB3*0101 (Homo sapiens, UniProt P01903+P79483). It is filed as binding.
For the next test, the target named is DRB5*0101 (Homo sapiens, UniProt P01903+Q30154).
The next test has as its target DR4w4 (DRB1*0401) (Homo sapiens, UniProt P01903+P01911, A100K/A169T/F76Y/I96L/K127E/L162R/M171V/N62H/P40V/Q125Y/R42H/S133A/S149N/S66Y/V115G/V209L/W38E). It is filed as binding.
In another test the target is DR7 (DRB1*0701) (Homo sapiens, UniProt P01903+P01911, A100R/A102G/A103Q/D57E/D86V/E43K/F76Y/K127E/L162R/M171V/P40G/Q125H/Q99D/R33Q/R42Y/R54Q/S133A/S66F/T210M/V115G/Y107V/Y59L/Y89S). In kind it is binding.
For a further test, the target named is DRB1*1302 (Homo sapiens, UniProt P01903+P01911, A100E/A169T/K41T/L162R/M171V/P40S/Q125H/Q178H/Q39Y/Q99D/R42S/S66N/T262R/V115G/W38E/Y61H). In kind it is binding.
Sequence of DRB1*1302 (P01903 26-254 limits assumed, other chains not shown): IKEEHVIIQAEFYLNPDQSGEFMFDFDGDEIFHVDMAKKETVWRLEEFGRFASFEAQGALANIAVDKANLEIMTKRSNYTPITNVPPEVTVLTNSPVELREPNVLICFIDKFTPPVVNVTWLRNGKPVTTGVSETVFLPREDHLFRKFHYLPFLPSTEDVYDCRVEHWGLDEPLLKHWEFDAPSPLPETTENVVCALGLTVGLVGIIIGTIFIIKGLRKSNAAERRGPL
The next test has as its target DRB1*1101 (Homo sapiens, UniProt P01903+P01911, A100R/A169T/A87E/I96F/K41T/L162R/M171V/P40S/Q125H/Q178H/Q39Y/Q99D/R42S/S66Y/T262R/V115G/W38E).
The next test has as its target DRB1*0802 (Homo sapiens, UniProt P01903+P01911, A100R/A103L/A169T/F76Y/H45Y/I96F/K41T/L162R/M171V/P40S/Q125H/Q178H/Q39Y/Q99D/R218S/R42G/S66Y/V115G/W38E). In kind it is binding.
The target in the next test is DRB1*0901 (Homo sapiens, UniProt P01903+P01911, A100R/A103E/D57H/D86V/F55Y/F60I/F76Y/I96F/K127E/L162R/M171V/P40D/Q125H/Q99R/R33Q/R42F/S133A/S66N/T210M/V115G/W38K/Y107V/Y59G/Y89S). In kind it is binding.
Another test addresses DRB1*1501 (Homo sapiens, UniProt P01903+P01911). It is filed as binding.
Another test has as its target DRB1*0405 (Homo sapiens, UniProt P01903+P01911, A100R/A169T/D86S/F76Y/I96L/K127E/L162R/M171V/N62H/P40V/Q125Y/R42H/S133A/S149N/S66Y/V115G/V209L/W38E). In kind it is binding.
The next test deals with DR1 (DRB1*0101) (Homo sapiens, UniProt P01903+P01911, A100R/D57E/F55L/F60I/F76Y/I96L/L162R/M171V/P40L/Q125E/R42F/V115G/Y59C). In kind it is binding.
The next test deals with DRB4*0101 (Homo sapiens, UniProt P01903+P13762, G164S). In kind it is binding.
In a further test the target is DRB1*1201 (Homo sapiens, UniProt P01903+P01911, A100R/A169T/D57E/D86V/F55L/H45Y/K41T/L162R/M171V/P40S/Q125H/Q178H/Q39Y/Q99D/R42G/S66L/T262R/V114A/V67L/W38E/Y59H/Y61H/Y89S). It is filed as binding.

No end group written: not given here.

Sequence of DRB1*1101 (P01903 26-254 limits assumed, other chains not shown): as above

As to NMSLLKHQSLRPDED [Peptide 68.0009], the IC50 at DRB3*0101, on DRB5*0101 (Binding affinity DRB5 *0101), against DR4w4 (DRB1*0401), against DR7 (DRB1*0701), against DRB1*1302 and at DRB1*1101 (Binding affinity DRB1 *1101) was more than 20 µM in each case. Besides, the IC50 on DRB1*0802, against DRB1*0901 and at DRB1*1501 was more than 20 µM each time.
As to EISFAGIVTKLPTAN [Peptide 89.0174], the IC50 (usually the point on the concentration scale where inhibition reaches its midpoint) is 0.07 µM at DRB3*0101; more than 20 µM at DRB1*0405; 18.7 µM against DR1 (DRB1*0101); 7.8 µM on DR7 (DRB1*0701); more than 20 µM at DRB1*1101 (Binding affinity DRB1 *1101); more than 20000 nM at DRB4*0101. The IC50 is 11.3 µM against DRB1*0802, more than 20 µM on DRB1*0901 and 8.14 µM against DRB1*1501.
For `CC[C@H](C)[C@H](NC(=O)[C@@H]1CCCN1C(=O)[C@H](Cc1c[nH]cn1)NC(=O)[C@@H](NC(=O)[C@@H]1CCCN1C(=O)[C@@H](NC(=O)[C@H](CO)NC(=O)[C@@H]1CCCN1C(=O)[C@H](CC(C)C)NC(=O)CNC(=O)[C@@H](NC(=O)[C@H](C)NC(=O)[C@H](CCC(=O)O)NC(=O)[C@H](C)N)C(C)C)[C@@H](C)CC)C(C)C)C(=O)NCC(=O)O` [Peptide 68.0101], the IC50 at DRB3*0101 is more than 20 µM; at DRB5*0101 (Binding affinity DRB5 *0101) it was more than 20 µM; on DRB1*1101 (Binding affinity DRB1 *1101), more than 20 µM; against DRB1*0802 it was more than 20 µM; at DRB1*0901, more than 20 µM; on DRB1*1201, 700 nM.
Take `CC[C@H](C)[C@H](NC(=O)[C@H](CO)NC(=O)[C@H](CC(C)C)NC(=O)[C@@H](NC(=O)[C@H](CC(C)C)NC(=O)[C@@H](N)CC(=O)O)C(C)C)C(=O)N[C@@H](C)C(=O)N[C@@H](CC(C)C)C(=O)N[C@@H](CO)C(=O)N[C@H](C(=O)NCC(=O)N[C@@H](CS)C(=O)N[C@H](C(=O)NCC(=O)N[C@@H](C)C(=O)O)[C@@H](C)O)C(C)C` [Peptide 68.0002]: the IC50 was more than 20 µM on DRB3*0101; more than 20 µM on DRB5*0101 (Binding affinity DRB5 *0101); more than 20 µM at DRB1*1101 (Binding affinity DRB1 *1101); more than 20 µM against DRB1*0802; 4920 nM on DRB1*1201.
With ADKIYSISMKHPQEM [Peptide 68.0125], the IC50 against DRB3*0101 is more than 20 µM; on DRB5*0101 (Binding affinity DRB5 *0101) it was more than 20 µM; against DR1 (DRB1*0101), more than 20 µM; against DRB1*1201, 9250 nM.
VILLGRHSLFHPEDT [Peptide 68.0068]: the figures for the IC50 at DRB3*0101, on DR7 (DRB1*0701) and against DRB1*1201 were more than 20 µM, more than 20 µM and 56 nM, respectively.
As for LETIYNSQYSNEKWT [Peptide 1601.03], the IC50 was more than 20 µM against DRB3*0101; 3 µM against DRB1*0405; 0.208 µM at DRB5*0101 (Binding affinity DRB5 *0101); 8.61 µM against DR1 (DRB1*0101); 0.099 µM against DR4w4 (DRB1*0401); more than 20 µM on DR7 (DRB1*0701). The IC50 on DRB1*1302 was 6.8 µM; on DRB1*1101 (Binding affinity DRB1 *1101), more than 20 µM; on DRB1*0802, more than 20 µM; against DRB1*0901, 6.1 µM; against DRB1*1501 it was 0.563 µM.
Turning to `CC(C)C[C@H](NC(=O)[C@H](CCC(=O)O)NC(=O)[C@H](CCCCN)NC(=O)[C@H](C)NC(=O)[C@H](CC(C)C)NC(=O)[C@@H](NC(=O)[C@H](CO)NC(=O)[C@H](CCCNC(=N)N)NC(=O)[C@@H](N)CC(=O)O)C(C)C)C(=O)N[C@@H](CCCCN)C(=O)N[C@@H](Cc1ccccc1)C(=O)N[C@H](C(=O)N[C@H](C(=O)N[C@@H](CC(C)C)C(=O)N[C@H](C(=O)O)C(C)C)[C@@H](C)O)C(C)C` [Peptide 68.0024], the concentration for half-maximal inhibition (IC50) at DRB3*0101 is more than 20 µM; on DRB1*1101 (Binding affinity DRB1 *1101), more than 20 µM; against DRB1*1201 it was 301 nM.
As to GIVEQTTTSITSLYQ [Peptide 9000.0054], the IC50 is more than 95.2 µM at DRB3*0101; more than 37.6 µM against DRB5*0101 (DRB5*0101); 0.014 µM against DRB1*1302; more than 10.5 µM on DRB1*1101 (DRB1*1101); 2300 nM against DRB4*0101; 0.849 µM against DRB1*1501.
Consider GNEIFNTSLFEPPPP [Peptide 68.0090], for which the 50% inhibitory concentration (IC50) at DRB3*0101, at DRB5*0101 (Binding affinity DRB5 *0101), on DR1 (DRB1*0101), against DR7 (DRB1*0701), at DRB1*1101 (Binding affinity DRB1 *1101) and against DRB1*0802 was more than 20 µM throughout. For the same compound, the results for the IC50 on DRB1*1501 and on DRB1*1201 were more than 20 µM and more than 20000 nM, respectively.
Regarding HPLYNMSLLKHQSLR [Peptide 68.0008], the results for the IC50 against DRB3*0101 and against DRB1*1201 were more than 20 µM and 95 nM, respectively.
As to RVPVSHSFPHPLYNM [Peptide 68.0006], the IC50 against DRB3*0101, at DR4w4 (DRB1*0401), on DRB1*1101 (Binding affinity DRB1 *1101) and against DRB1*0802 was more than 20 µM each time.
As to `CC[C@H](C)[C@H](NC(=O)[C@@H](NC(=O)[C@H](Cc1c[nH]cn1)NC(=O)[C@@H](N)CCCNC(=N)N)C(C)C)C(=O)N[C@@H](Cc1ccc(O)cc1)C(=O)N[C@@H](C)C(=O)N1CCC[C@H]1C(=O)N[C@@H](CO)C(=O)N[C@@H](CO)C(=O)N[C@@H](Cc1c[nH]cn1)C(=O)N[C@@H](CC(N)=O)C(=O)N[C@@H](CCCCN)C(=O)N[C@@H](Cc1ccc(O)cc1)C(=O)N[C@@H](C)C(=O)NCC(=O)O` [Peptide 68.0133], the IC50 at DRB3*0101 is more than 20 µM; against DR7 (DRB1*0701), more than 20 µM; at DRB1*1201 it was 7080 nM.
Turning to DFEVFFQRLGIASGR [Peptide 68.0114], the values for the IC50 at DRB3*0101, against DR7 (DRB1*0701) and on DRB1*1201 were more than 20 µM, more than 20 µM and 2000 nM, respectively.
`CC[C@H](C)[C@H](NC(=O)[C@@H](N)CCC(=O)O)C(=O)N[C@H](C(=O)N[C@@H](CC(C)C)C(=O)N[C@@H](Cc1c[nH]cn1)C(=O)N[C@@H](CC(C)C)C(=O)N[C@@H](CCC(=O)O)C(=O)N1CCC[C@H]1C(=O)N[C@@H](CCC(N)=O)C(=O)N[C@@H](CC(N)=O)C(=O)N[C@@H](CCC(=O)O)C(=O)N[C@@H](CC(C)C)C(=O)N[C@@H](CC(=O)O)C(=O)N1CCC[C@H]1C(=O)N[C@H](C(=O)O)C(C)C)C(C)C` [Peptide 1543.20]: the IC50 against DRB3*0101, on DRB5*0101 (Binding affinity DRB5 *0101), on DRB1*1101 (Binding affinity DRB1 *1101), at DRB1*0802, against DRB1*0901 and against DRB1*1501 was more than 20 µM throughout. Moreover, at DRB1*1201, the IC50 is more than 20000 nM.
With `CC[C@H](C)[C@H](NC(=O)[C@@H](NC(=O)[C@@H]1CCCN1C(=O)CNC(=O)[C@@H](NC(=O)[C@H](CC(C)C)NC(=O)[C@H](CCC(=O)O)NC(=O)[C@H](C)NC(=O)[C@@H](N)Cc1ccccc1)C(C)C)C(C)C)C(=O)N1CCC[C@H]1C(=O)N[C@@H](CCC(N)=O)C(=O)N[C@@H](CC(=O)O)C(=O)N[C@@H](Cc1c[nH]c2ccccc12)C(=O)N[C@@H](CO)C(=O)N[C@H](C(=O)O)[C@@H](C)O` [Peptide 68.0056], the IC50 at DRB3*0101, on DRB5*0101 (Binding affinity DRB5 *0101), against DR7 (DRB1*0701), on DRB1*1302, at DRB1*1101 (Binding affinity DRB1 *1101) and against DRB1*0802 was more than 20 µM in each case. The IC50 against DRB1*0901 and at DRB1*1501 was more than 20 µM throughout.
Regarding PHPLYNMSLLKHQSL [Peptide 68.0007], the IC50 against DRB3*0101 was more than 20 µM; against DR7 (DRB1*0701), more than 20 µM; against DRB1*1201, 860 nM.
For LDHYENDSKDINSQI [Peptide 1601.29], the IC50 against DRB3*0101 was 2.05 µM; against DRB1*0405, more than 20 µM; at DRB5*0101 (Binding affinity DRB5 *0101), more than 20 µM; against DR1 (DRB1*0101), more than 20 µM; against DR4w4 (DRB1*0401), more than 20 µM; on DR7 (DRB1*0701), 19.9 µM. The IC50 against DRB1*1302 was more than 20 µM; at DRB1*1101 (Binding affinity DRB1 *1101), more than 20 µM; on DRB4*0101 it was 554 nM; against DRB1*0802, more than 20 µM; at DRB1*0901 it was more than 20 µM; at DRB1*1501, more than 20 µM.

The record behind these values is US9340577B2, “HLA binding motifs and peptides and their uses” (priority 1992, dated 2016).
